Laboratory results: patent US20120149625A1, “Detergent Composition” (Novozymes A/S, priority 2009, published 2012)
Like-named read-outs stand apart in the source and are kept apart here. Residues, ends and D or L forms follow the SMILES beside them. *: point of attachment. Cbz = O=C(OCc1ccccc1)*

Tests used:
[1] = system: Protease PD138; assay: Washing test in commercial liquid detergents (Example 4); settings: Liquid detergent Commercial 1; inhibitor:protease molar ratio 5:1; 20 min, 20° C., 15° dH
Procedure: (§1) Washing tests were made in detergents with a protease and an inhibitor. Washing conditions were 20 minutes washing at 20° C. and 15° dH. The protease was Savinase at 30 nM. The inhibitor was inhibitor Z-GAY-H at various molar ratios. The results are shown as detergency with the inhibitor relative to detergency at the same conditions without the inhibitor:
(§2) Two commercial liquid detergents purchased in England were tested with inhibitor:protease molar ratio of 5:1. Protease 10R is described in WO 88/03947. Protease PD138 is described in […]

[2] = system: Protease 10R; assay: as above; settings: Liquid detergent Commercial 1; inhibitor:protease molar ratio 5:1; 20 min, 20° C., 15° dH
Procedure: as §1, §2

[3] = target: T1, Savinase (Lederbergia lenta, UniProt P29600); assay: biochemical; settings: substrate SucAAPF-pNA, 0,1M TRIS pH 9.0, 25° C., [E]0=6E-09 M, read-out: inhibition constant Ki
T1 sequence (P29600 1-269): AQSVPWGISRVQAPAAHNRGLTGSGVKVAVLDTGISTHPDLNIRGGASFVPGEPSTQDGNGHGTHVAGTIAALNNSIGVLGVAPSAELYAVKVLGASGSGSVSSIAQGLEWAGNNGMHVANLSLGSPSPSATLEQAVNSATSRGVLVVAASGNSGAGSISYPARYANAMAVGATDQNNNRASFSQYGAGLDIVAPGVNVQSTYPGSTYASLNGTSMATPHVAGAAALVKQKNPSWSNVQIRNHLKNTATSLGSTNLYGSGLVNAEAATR

[4] = target: Savinase variant Y167A + R170S + A194P (Lederbergia lenta, UniProt P29600, A188P/R164S/Y161A); settings: Powder Detergent 2 at 2.5 g/L, 30 nM Savinase variant Y167A + R170S + A194P, 20° C., 15° dH
[5] = target: T1, Savinase; assay: AMSA laundry detergency, laundry liquid model detergent, various inhibitors (Example 2); settings: 30 nM Savinase, 20° C., 15° dH, inhibitor dosering 5, None = 100%
Procedure: Model detergents and test materials for laundry were as follows:
After washing the textiles were flushed in tap water and dried.
Detergency was determined with various inhibitors in the laundry liquid model detergent with 30 nM protease (Savinase). Washing was done at 20° C. and water hardness 15° dH with test swatches EMPA117EH.

[6] = target: T2, Alcalase (Bacillus licheniformis, UniProt P00780); assay: AMSA laundry detergency, powder detergent, various inhibitors (Example 1); settings: 30 nM protease, 40° C., 15° dH, inhibitor dosage 5, None = 100%
T2 construct: purchased Novozymes A/S
T2 sequence (P00780 106-379): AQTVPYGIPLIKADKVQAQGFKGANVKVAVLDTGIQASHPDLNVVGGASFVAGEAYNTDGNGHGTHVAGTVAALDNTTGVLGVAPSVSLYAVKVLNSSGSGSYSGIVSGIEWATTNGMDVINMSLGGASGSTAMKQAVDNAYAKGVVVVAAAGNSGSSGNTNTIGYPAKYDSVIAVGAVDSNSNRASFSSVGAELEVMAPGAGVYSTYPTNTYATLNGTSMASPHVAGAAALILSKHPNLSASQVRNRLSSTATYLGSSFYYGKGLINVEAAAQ

[7] = target: T2, Alcalase; assay: Washing test with protease and inhibitor at various molar ratios (Example 4); settings: 30 nM Alcalase, 20° C., 15° dH
[8] = target: T1, Savinase; assay: as above; settings: 20° C., 15° dH
Procedure: as §1, with “The protease was Savinase at 30 nM.” left out
The detergent was a powder detergent with the following composition at 2.5 g/L.
20.05 g Na-citrate dehydrate
The liquid detergent described under the AMSA assay was used.
The powder detergent described under the AMSA assay was used.

[9] = target: T1, Savinase; assay: AMSA laundry detergency, powder detergent, various inhibitors (Example 1); settings: 30 nM protease, 40° C., 15° dH
[10] = target: Savinase variant S99SE (Lederbergia lenta, UniProt P29600, INS97E); settings: Powder Detergent 2 at 2.5 g/L, 30 nM Savinase variant S99SE, 20° C., 15° dH
[11] = inhibitor:protease molar ratio 5, None = 100%
[12] = inhibitor:protease molar ratio 500, None = 100%
[13] = molar ratio not given, None = 100%

Sequence of Savinase variant S99SE (P29600 other isoform, or with tags, fused parts or gaps INS97E): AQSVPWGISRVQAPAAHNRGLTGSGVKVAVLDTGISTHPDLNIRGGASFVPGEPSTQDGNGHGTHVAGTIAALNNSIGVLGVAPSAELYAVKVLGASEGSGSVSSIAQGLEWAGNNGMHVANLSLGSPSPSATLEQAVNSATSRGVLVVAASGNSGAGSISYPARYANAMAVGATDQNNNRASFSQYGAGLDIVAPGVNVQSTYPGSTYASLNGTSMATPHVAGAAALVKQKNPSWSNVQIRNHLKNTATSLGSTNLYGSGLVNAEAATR
Sequence of Savinase variant Y167A + R170S + A194P (P29600 whole entry Y161A/R164S/A188P): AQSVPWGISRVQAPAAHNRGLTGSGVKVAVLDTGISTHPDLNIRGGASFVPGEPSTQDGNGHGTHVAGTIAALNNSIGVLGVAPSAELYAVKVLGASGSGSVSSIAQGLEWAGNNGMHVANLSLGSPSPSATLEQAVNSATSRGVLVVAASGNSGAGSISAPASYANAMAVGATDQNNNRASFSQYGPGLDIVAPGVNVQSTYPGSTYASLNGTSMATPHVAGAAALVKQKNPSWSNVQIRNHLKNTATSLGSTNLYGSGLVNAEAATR

SMILES: C[C@H](NC(=O)CNC(=O)OCc1ccccc1)C(=O)N[C@H](C=O)Cc1ccc(O)cc1 [Z-GAY-H] (Cbz-Gly-Ala-Tyr-aldehyde)
- Detergency increase [1]: 107%
- Detergency increase [2]: 107%
- Ki [3]: 7.4 nM
- detergency with the inhibitor relative to without ([4]; molar ratio 1.5): 100%
- detergency with the inhibitor relative to without ([4]; molar ratio 3): 107%
- detergency with the inhibitor relative to without ([4]; molar ratio 5): 107%
- EMPA117EH % performance increase [5]: 114%
- CS-37 % performance [6]: 147%
- EMPA117EH % performance [6]: 108%
- detergency with the inhibitor relative to without ([7]; Liquid Detergent (AMSA model), molar ratio 1.5): 145%
- detergency with the inhibitor relative to without ([7]; Liquid Detergent (AMSA model), molar ratio 3): 169%
- detergency with the inhibitor relative to without ([7]; Liquid Detergent (AMSA model), molar ratio 5): 146%
- detergency with the inhibitor relative to without ([7]; Liquid Detergent (AMSA model), molar ratio 7.5): 149%
- detergency with the inhibitor relative to without ([7]; Liquid Detergent (AMSA model), molar ratio 10): 147%
- detergency with the inhibitor relative to without ([7]; Powder Detergent 2 at 2.5 g/L, molar ratio 3): 103%
- detergency with the inhibitor relative to without ([7]; Powder Detergent 2 at 2.5 g/L, molar ratio 5): 113%
- detergency with the inhibitor relative to without ([7]; Powder Detergent 2 at 2.5 g/L, molar ratio 7.5): 116%
- detergency with the inhibitor relative to without ([7]; Powder Detergent 2 at 2.5 g/L, molar ratio 10): 119%
- detergency with the inhibitor relative to without ([8]; Liquid Detergent (AMSA model), 30 nM Savinase, molar ratio 1.5): 114%
- detergency with the inhibitor relative to without ([8]; Liquid Detergent (AMSA model), 30 nM Savinase, molar ratio 3): 109%
- detergency with the inhibitor relative to without ([8]; Liquid Detergent (AMSA model), 30 nM Savinase, molar ratio 5): 108%
- detergency with the inhibitor relative to without ([8]; Powder Detergent 1 (AMSA model), 10 nM Savinase, molar ratio 0.5): 112%
- detergency with the inhibitor relative to without ([8]; Powder Detergent 1 (AMSA model), 10 nM Savinase, molar ratio 1): 108%
- detergency with the inhibitor relative to without ([8]; Powder Detergent 1 (AMSA model), 10 nM Savinase, molar ratio 1.5): 111%
- detergency with the inhibitor relative to without ([8]; Powder Detergent 1 (AMSA model), 10 nM Savinase, molar ratio 2): 121%
- detergency with the inhibitor relative to without ([8]; Powder Detergent 1 (AMSA model), 10 nM Savinase, molar ratio 3): 118%
- detergency with the inhibitor relative to without ([8]; Powder Detergent 1 (AMSA model), 10 nM Savinase, molar ratio 5): 118%
- detergency with the inhibitor relative to without ([8]; Powder Detergent 1 (AMSA model), 10 nM Savinase, molar ratio 10): 122%
- detergency with the inhibitor relative to without ([8]; Powder Detergent 1 (AMSA model), 10 nM Savinase, molar ratio 15): 116%
- detergency with the inhibitor relative to without ([8]; Powder Detergent 1 (AMSA model), 10 nM Savinase, molar ratio 20): 104%
- detergency with the inhibitor relative to without ([8]; Powder Detergent 1 (AMSA model), 10 nM Savinase, molar ratio 30): 101%
- detergency with the inhibitor relative to without ([8]; Powder Detergent 1 (AMSA model), 10 nM Savinase, molar ratio 50): 95%
- detergency with the inhibitor relative to without ([8]; Powder Detergent 1 (AMSA model), 30 nM Savinase, molar ratio 0.5): 106%
- detergency with the inhibitor relative to without ([8]; Powder Detergent 1 (AMSA model), 30 nM Savinase, molar ratio 1): 105%
- detergency with the inhibitor relative to without ([8]; Powder Detergent 1 (AMSA model), 30 nM Savinase, molar ratio 1.5): 107%
- detergency with the inhibitor relative to without ([8]; Powder Detergent 1 (AMSA model), 30 nM Savinase, molar ratio 2): 108%
- detergency with the inhibitor relative to without ([8]; Powder Detergent 1 (AMSA model), 30 nM Savinase, molar ratio 3): 105%
- detergency with the inhibitor relative to without ([8]; Powder Detergent 1 (AMSA model), 30 nM Savinase, molar ratio 5): 110%
- detergency with the inhibitor relative to without ([8]; Powder Detergent 1 (AMSA model), 30 nM Savinase, molar ratio 10): 107%
- detergency with the inhibitor relative to without ([8]; Powder Detergent 1 (AMSA model), 30 nM Savinase, molar ratio 15): 99%
- detergency with the inhibitor relative to without ([8]; Powder Detergent 1 (AMSA model), 30 nM Savinase, molar ratio 20): 95%
- detergency with the inhibitor relative to without ([8]; Powder Detergent 1 (AMSA model), 30 nM Savinase, molar ratio 30): 83%
- detergency with the inhibitor relative to without ([8]; Powder Detergent 1 (AMSA model), 30 nM Savinase, molar ratio 50): 80%
- detergency with the inhibitor relative to without ([8]; Powder Detergent 2 at 2.5 g/L, 30 nM Savinase, molar ratio 1.5): 132%
- detergency with the inhibitor relative to without ([8]; Powder Detergent 2 at 2.5 g/L, 30 nM Savinase, molar ratio 3): 140%
- detergency with the inhibitor relative to without ([8]; Powder Detergent 2 at 2.5 g/L, 30 nM Savinase, molar ratio 5): 134%
- CS-37 % performance [9, 11]: 242%
- EMPA117EH % performance [9, 11]: 117%
- detergency with the inhibitor relative to without ([10]; molar ratio 1.5): 100%
- detergency with the inhibitor relative to without ([10]; molar ratio 3): 103%
- detergency with the inhibitor relative to without ([10]; molar ratio 5): 106%

SMILES: O=Cc1ccc(B(O)O)cc1 [Inhibitor 4-FPBA, 4-formyl-phenyl-boronic acid]
- CS-37 % performance [9, 12]: 128%
- EMPA117EH % performance [9, 12]: 107%
- CS-37 % performance [9, 13]: 137%
- EMPA117EH % performance [9, 13]: 111%
